These molecules were tested on HEK293 cells (assay: HEK293 VLCFA-LPC IC50 determination (13C-labeled C26:0 LPC by UHPLC/MS)). Conditions: Homo sapiens, HEK293, 48 h, average of one or more replicates; 13C-labeled C26:0 LPC, 48 hours; read-out: Average HEK293 IC50.
Format: cell-based, human
Summary of the method: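 Suspension HEK293 cells (final 0.5 million/mL after mixing with equal volume) incubated 48 hours with compound plus 13C-acetate (1.0 mg/mL in added media), shaking at 37° C. Lipids extracted with hexane/isopropanol or methanol, C13:0 LPC standard. UHPLC/MS of 13C-labeled C26:0 LPC (638.500/104.100 m/z); IC50 by four-parameter fit.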

`CC(C)Oc1cc(-n2ccc(NC(=O)C3(c4ccccc4F)CC3)n2)ccn1` [Compound 342, 1-(2-fluorophenyl)-N-[1-(2-isopropoxy-4-pyridyl)pyrazol-3-yl]cyclopropanecarboxamide] and `Cc1nccc(-n2ccc(NC(=O)C3(c4ccccc4F)CC3)n2)c1C` [Compound 343, N-[1-(2,3-dimethyl-4-pyridyl)pyrazol-3-yl]-1-(2-fluorophenyl)cyclopropanecarboxamide] cannot be ordered by IC50: over 5 µM for the first, over 5 µM for the second.

First: Cc1ncc(C#N)c(-n2ccc(NC(=O)C3(c4ccccc4F)CC3)n2)n1 [Compound 344, N-[1-(5-cyano-2-methyl-pyrimidin-4-yl)pyrazol-3-yl]-1-(2-fluorophenyl)cyclopropanecarboxamide]
Second: Cc1cncnc1-n1ccc(NC(=O)C2(c3ccccc3F)CC2)n1 [Compound 360, 1-(2-fluorophenyl)-N-[1-(5-methylpyrimidin-4-yl)pyrazol-3-yl]cyclopropanecarboxamide]
The IC50 of the first is higher: over 5 µM for the first, 0.069 µM for the second.

`COc1cncc(F)c1-n1ccc(NC(=O)C2(c3ccccc3F)CC2)n1` [Compound 345, N-[1-(3-fluoro-5-methoxy-4-pyridyl)pyrazol-3-yl]-1-(2-fluorophenyl)cyclopropanecarboxamide] and `COc1cncc(OC)c1-n1ccc(NC(=O)C2(c3ccccc3F)CC2)n1` [Compound 347, N-[1-(3,5-dimethoxy-4-pyridyl)pyrazol-3-yl]-1-(2-fluorophenyl)cyclopropanecarboxamide] cannot be ordered by IC50: over 2 µM for the first, over 5 µM for the second.

`Cc1cc(-n2ccc(NC(=O)C3(c4ccccc4F)CC3)n2)cc(C#N)n1` [Compound 346, N-[1-(2-cyano-6-methyl-4-pyridyl)pyrazol-3-yl]-1-(2-fluorophenyl)cyclopropanecarboxamide] and `N#Cc1cc(F)cc(-n2ccc(NC(=O)C3(c4ccccc4F)CC3)n2)c1` [Compound 352, N-[1-(3-cyano-5-fluoro-phenyl)pyrazol-3-yl]-1-(2-fluorophenyl)cyclopropanecarboxamide] cannot be ordered by IC50: over 5 µM for the first, over 5 µM for the second.

Compared with `COc1ncc(-n2ccc(NC(=O)C3(c4ccccc4F)CC3)n2)cc1F` [Compound 348, N-[1-(5-fluoro-6-methoxy-3-pyridyl)pyrazol-3-yl]-1-(2-fluorophenyl)cyclopropanecarboxamide], `COc1ncc(-n2ccc(NC(=O)C3(c4ccccc4F)CC3)n2)cc1Cl` [Compound 378, N-(1-(5-chloro-6-methoxypyridin-3-yl)-1H-pyrazol-3-yl)-1-(2-fluorophenyl)cyclopropane-1-carboxamide] is 3.6-fold higher in IC50: 0.033 µM for the first, 0.12 µM for the second.

Compared with `Cc1ncc(-n2ccc(NC(=O)C3(c4ccccc4F)CC3)n2)cc1F` [Compound 349, N-[1-(5-fluoro-6-methyl-3-pyridyl)pyrazol-3-yl]-1-(2-fluorophenyl)cyclopropanecarboxamide], `Cc1cc(-n2ccc(NC(=O)C3(c4ccccc4F)CC3)n2)cnc1F` [Compound 376, N-[1-(6-fluoro-5-methyl-3-pyridyl)pyrazol-3-yl]-1-(2-fluorophenyl)cyclopropanecarboxamide] is 6.8-fold lower in IC50: 0.44 µM for the first, 0.065 µM for the second. The second is the more potent here.

Going from `Cc1cc(-n2ccc(NC(=O)C3(c4ccccc4F)CC3)n2)c(C)cn1` [Compound 350, N-[1-(2,5-dimethyl-4-pyridyl)pyrazol-3-yl]-1-(2-fluorophenyl)cyclopropanecarboxamide] to `Cc1c(-n2ccc(NC(=O)C3(c4ccccc4F)CC3)n2)ccnc1F` [Compound 351, N-[1-(2-fluoro-3-methyl-4-pyridyl)pyrazol-3-yl]-1-(2-fluorophenyl)cyclopropanecarboxamide], the IC50 falls from over 5 µM to 0.42 µM. The second is the more potent here.

First: COc1ncncc1-n1ccc(NC(=O)C2(c3ccccc3F)CC2)n1 [Compound 353, 1-(2-fluorophenyl)-N-[1-(4-methoxypyrimidin-5-yl)pyrazol-3-yl]cyclopropanecarboxamide]
Second: O=C(Nc1ccn(-c2ncncc2F)n1)C1(c2ccccc2F)CC1 [Compound 361, 1-(2-fluorophenyl)-N-[1-(5-fluoropyrimidin-4-yl)pyrazol-3-yl]cyclopropanecarboxamide]
The IC50 of the first is 15-fold higher: 2.2 µM for the first, 0.15 µM for the second. The second is the more potent here.

`CC(C)(O)c1ncc(-n2ccc(NC(=O)C3(c4ccccc4F)CC3)n2)cc1F` [Compound 354, N-[1-[5-fluoro-6-(1-hydroxy-1-methyl-ethyl)-3-pyridyl]pyrazol-3-yl]-1-(2-fluorophenyl)cyclopropanecarboxamide] and `CC(C)(O)c1ncc(-n2ccc(NC(=O)C3(c4ccccc4F)CC3)n2)cn1` [Compound 382, 1-(2-fluorophenyl)-N-[1-[2-(1-hydroxy-1-methyl-ethyl)pyrimidin-5-yl]pyrazol-3-yl]cyclopropanecarboxamide] cannot be ordered by IC50: over 5 µM for the first, over 5 µM for the second.

Going from `O=C(Nc1ccn(-c2ccc(O)c(F)c2)n1)C1(c2ccccc2F)CC1` [Compound 355, N-[1-(3-fluoro-4-hydroxy-phenyl)pyrazol-3-yl]-1-(2-fluorophenyl)cyclopropanecarboxamide] to `Nc1ccc(-n2ccc(NC(=O)C3(c4ccccc4F)CC3)n2)cc1F` [Compound 387, N-[1-(4-amino-3-fluoro-phenyl)pyrazol-3-yl]-1-(2-fluorophenyl)cyclopropanecarboxamide], the IC50 falls from 1.7 µM to 1.1 µM (1.5-fold). The second is the more potent here.

Compared with `O=C(Nc1ccn(-c2cnnc(O)c2)n1)C1(c2ccccc2F)CC1` [Compound 356, 1-(2-fluorophenyl)-N-[1-(6-hydroxypyridazin-4-yl)pyrazol-3-yl]cyclopropanecarboxamide], `O=C(Nc1ccn(-c2cnc(Cl)c(Cl)c2)n1)C1(c2ccccc2F)CC1` [Compound 379, N-[1-(5,6-dichloro-3-pyridyl)pyrazol-3-yl]-1-(2-fluorophenyl)cyclopropanecarboxamide] is lower in IC50: over 5 µM for the first, 0.12 µM for the second. The second is the more potent here.

Compared with `O=C(Nc1ccn(-c2cc(F)c(O)c(F)c2)n1)C1(c2ccccc2F)CC1` [Compound 357, N-[1-(3,5-difluoro-4-hydroxy-phenyl)pyrazol-3-yl]-1-(2-fluorophenyl)cyclopropanecarboxamide], `Nc1c(F)cc(-n2ccc(NC(=O)C3(c4ccccc4F)CC3)n2)cc1F` [Compound 384, N-[1-(4-amino-3,5-difluoro-phenyl)pyrazol-3-yl]-1-(2-fluorophenyl)cyclopropanecarboxamide] is lower in IC50: over 5 µM for the first, 0.98 µM for the second.

`COc1cc(-n2ccc(NC(=O)C3(c4ccccc4F)CC3)n2)ncn1` [Compound 358, 1-(2-fluorophenyl)-N-(1-(6-methoxypyrimidin-4-yl)-1H-pyrazol-3-yl)cyclopropane-1-carboxamide] and `COc1cc(-n2ccc(NC(=O)C3(c4ccccc4F)CC3)n2)nc(C)n1` [Compound 359, 1-(2-fluorophenyl)-N-[1-(6-methoxy-2-methyl-pyrimidin-4-yl)pyrazol-3-yl]cyclopropanecarboxamide] cannot be ordered by IC50: over 5 µM for the first, over 5 µM for the second.

`CN(C(=O)Cc1ccccc1F)c1ccn(-c2ccccc2)n1` [Compound 362, 2-(2-fluorophenyl)-N-methyl-N-(1-phenyl-1H-pyrazol-3-yl)acetamide] and `CN(C(=O)C1(c2ccccc2F)CC1)c1ccn(-c2ccnc(F)c2)n1` [Compound 363, 1-(2-fluorophenyl)-N-(1-(2-fluoropyridin-4-yl)-1H-pyrazol-3-yl)-N-methylcyclopropane-1-carboxamide] cannot be ordered by IC50: over 5 µM for the first, over 5 µM for the second.

Going from `O=C(Nc1nn(-c2ccnc(F)c2)cc1F)C1(c2ccccc2F)CC1` [Compound 365, N-(4-fluoro-1-(2-fluoropyridin-4-yl)-1H-pyrazol-3-yl)-1-(2-fluorophenyl)cyclopropane-1-carboxamide] to `Nc1cc(-n2ccc(NC(=O)C3(c4ccccc4F)CC3)n2)ccc1F` [Compound 385, N-[1-(3-amino-4-fluoro-phenyl)pyrazol-3-yl]-1-(2-fluorophenyl)cyclopropanecarboxamide], the IC50 rises from 0.41 µM to 1.4 µM (3.4-fold). The first is the more potent here.

Compared with `Cc1cn(-c2ccccc2)nc1NC(=O)C1(c2cccc(F)c2)CCC1` [Compound 372, 1-(3-fluorophenyl)-N-(4-methyl-1-phenyl-pyrazol-3-yl)cyclobutanecarboxamide], `Cc1ccccc1C1(C(=O)Nc2ccn(-c3ccncc3)n2)CC1` [Compound 373, 1-(o-tolyl)-N-[1-(4-pyridyl)pyrazol-3-yl]cyclopropanecarboxamide] is 26-fold lower in IC50: 3.7 µM for the first, 0.14 µM for the second.

Going from `Cc1csc(-n2ccc(NC(=O)C3(c4ccccc4F)CC3)n2)n1` [Compound 374, 1-(2-fluorophenyl)-N-(1-(4-methylthiazol-2-yl)-1H-pyrazol-3-yl)cyclopropane-1-carboxamide] to `O=C(Nc1ccn(-c2cnns2)n1)C1(c2ccccc2F)CC1` [Compound 388, 1-(2-fluorophenyl)-N-[1-(thiadiazol-5-yl)pyrazol-3-yl]cyclopropanecarboxamide], the IC50 falls from 0.47 µM to 0.037 µM (13-fold). The second is the more potent here.

First: O=C(Nc1ccn(-c2ncco2)n1)C1(c2ccccc2F)CC1 [Compound 375, 1-(2-fluorophenyl)-N-(1-oxazol-2-ylpyrazol-3-yl)cyclopropanecarboxamide]
Second: O=C(Nc1ccn(-c2ccc(F)nc2)n1)C1(c2ccccc2F)CC1 [Compound 377, 1-(2-fluorophenyl)-N-[1-(6-fluoro-3-pyridyl)pyrazol-3-yl]cyclopropanecarboxamide]
The IC50 of the first is 22-fold higher: 0.5 µM for the first, 0.023 µM for the second. The second is the more potent here.

`O=C(Nc1ccn(-c2cnc(C(F)(F)F)nc2)n1)C1(c2ccccc2F)CC1` [Compound 381, 1-(2-fluorophenyl)-N-[1-[2-(trifluoromethyl)pyrimidin-5-yl]pyrazol-3-yl]cyclopropanecarboxamide] and `CC(C)(C)c1ncc(-n2ccc(NC(=O)C3(c4ccccc4F)CC3)n2)cn1` [Compound 383, N-[1-(2-tert-butylpyrimidin-5-yl)pyrazol-3-yl]-1-(2-fluorophenyl)cyclopropanecarboxamide] cannot be ordered by IC50: over 5 µM for the first, over 5 µM for the second.

Same assay, conditions: Homo sapiens, HEK293, HEK293 cells; average of one or more replicates; read-out: Average HEK293 IC50

In the case of `Cc1cc(NC(=O)C2(c3ccccc3F)CC2)nn1-c1ccccc1` [Compound 386, 1-(2-fluorophenyl)-N-(5-methyl-1-phenyl-1H-pyrazol-3-yl)cyclopropane-1-carboxamide], the IC50 is reported as over 5 µM.
